Source: the supplement of paper PMC10627819

How the values were obtained:
Conditions in all cases: main component drawn
S. aureus Newman [1] = experiment: fitness (endpoint OD595 vs no drug) (fraction); higher = more growth
In short: (§1)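 Fitness was defined as the optical density at the transition into stationary phase relative to the robust mean of no-drug control wells. Values were capped at 1. Cultures were started at OD595 0.01 in 384-well plates (30 µl, or 55 µl for S. pneumoniae) in TSB, LB Lennox or CY at 37 °C. OD595 was recorded every 30 min over 14 h, with the first reading subtracted as background.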

S. aureus Newman [2] = experiment: Bliss interaction score (quartile over a dose matrix) (fitness difference); higher = more antagonism (negative = synergy)
In short: (§2)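 Fitness was defined as normalised growth: OD595 at the start of stationary phase divided by the plate's robust no-drug mean and capped at 1. Single-drug fitness was inferred from combination measurements. The Bliss score is observed fitness minus the product of the single-drug values, summarised by quartiles across technical, biological and donor/recipient replicates.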

B. subtilis 168 [3] = experiment: as above
In short: as §2

S. pneumoniae D39V [4] = experiment: as above
In short: as §2

S. aureus DSM 20231 = experiment: as above
In short: as §2

B. subtilis 168 [5] = experiment: fitness (endpoint OD595 vs no drug) (fraction); higher = more growth
In short: as §1

S. pneumoniae D39V [6] = experiment: as above
In short: as §1
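Throughout, for Bliss interaction score (quartile over a dose matrix): first quartile when negative (synergy) and third quartile when positive (antagonism).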

CC[C@H](C)[C@H](N)C1=N[C@H](C(=O)N[C@@H](CC(C)C)C(=O)N[C@H](CCC(=O)O)C(=O)N[C@H](C(=O)N[C@H]2CCCCNC(=O)[C@H](CC(N)=O)NC(=O)[C@@H](CC(=O)O)NC(=O)[C@H](Cc3cnc[nH]3)NC(=O)[C@@H](Cc3ccccc3)NC(=O)[C@H]([C@@H](C)CC)NC(=O)[C@@H](CCCN)NC2=O)[C@@H](C)CC)CS1 [Bacitracin] + C/C(=C\C(=O)OCCCCCCCCC(=O)O)C[C@@H]1OC[C@H](C[C@@H]2O[C@H]2[C@@H](C)[C@H](C)O)[C@@H](O)[C@H]1O [Pseudomonic acid]
fitness, S. aureus Newman [1], one replicate
Conditions	first compound 18.75 µg/mL	first compound 37.5 µg/mL	first compound 75 µg/mL
partner 0.0313 µg/mL	0.0438	0.029	0.0257
partner 0.0625 µg/mL	0.0196	0.0219	0.0077
partner 0.125 µg/mL	0.0416	0.0193	0.0115

Conditions	Bliss interaction score
B. subtilis 168 [3]	-0.0784
S. aureus DSM 20231	0.0189
S. aureus Newman [2]	0.0307
S. pneumoniae D39V [4]	-0.0953

CC[C@H](C)[C@H](N)C1=N[C@H](C(=O)N[C@@H](CC(C)C)C(=O)N[C@H](CCC(=O)O)C(=O)N[C@H](C(=O)N[C@H]2CCCCNC(=O)[C@H](CC(N)=O)NC(=O)[C@@H](CC(=O)O)NC(=O)[C@H](Cc3cnc[nH]3)NC(=O)[C@@H](Cc3ccccc3)NC(=O)[C@H]([C@@H](C)CC)NC(=O)[C@@H](CCCN)NC2=O)[C@@H](C)CC)CS1 [Bacitracin] + CCCCCCCCCC(=O)N[C@@H]1[C@H]([C@@H]([C@H](O[C@H]1OC2=C3C=C4C=C2OC5=C(C=C(C=C5)[C@H]([C@H]6C(=O)N[C@@H](C7=C(C(=CC(=C7)O)OC8[C@H]([C@H]([C@@H]([C@H](O8)CO)O)O)O)C9=C(C=CC(=C9)[C@H](C(=O)N6)NC(=O)[C@@H]4NC(=O)[C@@H]1C2=CC(=CC(=C2)OC2=C(C=CC(=C2)[C@H](C(=O)N[C@H](CC2=CC(=C(O3)C=C2)Cl)C(=O)N1)N)O)O)O)C(=O)O)O[C@H]1[C@@H]([C@H]([C@@H]([C@H](O1)CO)O)O)NC(=O)C)Cl)CO)O)O [Teicoplanin]
fitness, S. aureus Newman [1]
Conditions	first compound 18.75 µg/mL	first compound 37.5 µg/mL	first compound 75 µg/mL
partner 0.1562 µg/mL	0.777	0.249	0.0017
partner 0.3125 µg/mL	0.77	0.202	0.0042
partner 0.625 µg/mL	0.683	0.206	0

fitness, S. aureus Newman [1], one replicate
Conditions	first compound 18.75 µg/mL	first compound 37.5 µg/mL	first compound 75 µg/mL
partner 0.62 µg/mL	0.543	0.0346	0.0093
partner 1.24 µg/mL	0.424	0.0167	0.0003
partner 2.48 µg/mL	0.0859	0.0387	0.0349

Conditions	Bliss interaction score
B. subtilis 168 [3]	-0.119
S. aureus DSM 20231	-0.0716
S. aureus Newman [2]	0.0565
S. pneumoniae D39V [4]	-0.0678

CC[C@H](C)[C@H](N)C1=N[C@H](C(=O)N[C@@H](CC(C)C)C(=O)N[C@H](CCC(=O)O)C(=O)N[C@H](C(=O)N[C@H]2CCCCNC(=O)[C@H](CC(N)=O)NC(=O)[C@@H](CC(=O)O)NC(=O)[C@H](Cc3cnc[nH]3)NC(=O)[C@@H](Cc3ccccc3)NC(=O)[C@H]([C@@H](C)CC)NC(=O)[C@@H](CCCN)NC2=O)[C@@H](C)CC)CS1 [Bacitracin] + CN[C@H](CC(C)C)C(=O)N[C@H]1C(=O)N[C@@H](CC(N)=O)C(=O)N[C@H]2C(=O)N[C@H]3C(=O)N[C@H](C(=O)N[C@H](C(=O)O)c4cc(O)cc(O)c4-c4cc3ccc4O)[C@H](O)c3ccc(c(Cl)c3)Oc3cc2cc(c3O[C@@H]2O[C@H](CO)[C@@H](O)[C@H](O)[C@H]2O[C@H]2C[C@](C)(N)[C@H](O)[C@H](C)O2)Oc2ccc(cc2Cl)[C@H]1O [Vancomycin]
fitness, S. aureus Newman [1]
Conditions	first compound 18.75 µg/mL	first compound 37.5 µg/mL	first compound 75 µg/mL
partner 0.1875 µg/mL	0.735	0.183	0.0338
partner 0.375 µg/mL	0.723	0.135	0.0309
partner 0.75 µg/mL	0.712	0.159	0.0262

Conditions	Bliss interaction score
B. subtilis 168 [3]	0.0708
S. aureus DSM 20231	0.0843
S. aureus Newman [2]	-0.0422
S. pneumoniae D39V [4]	-0.0651

CC[C@H](C)[C@H](N)C1=N[C@H](C(=O)N[C@@H](CC(C)C)C(=O)N[C@H](CCC(=O)O)C(=O)N[C@H](C(=O)N[C@H]2CCCCNC(=O)[C@H](CC(N)=O)NC(=O)[C@@H](CC(=O)O)NC(=O)[C@H](Cc3cnc[nH]3)NC(=O)[C@@H](Cc3ccccc3)NC(=O)[C@H]([C@@H](C)CC)NC(=O)[C@@H](CCCN)NC2=O)[C@@H](C)CC)CS1 [Bacitracin] + CO/N=C(\C(=O)N[C@@H]1C(=O)N2C(C(=O)[O-])=C(C[N+]3(C)CCCC3)CS[C@H]12)c1csc(N)n1 [Cefepime]
fitness, S. aureus Newman [1]
Conditions	first compound 18.75 µg/mL	first compound 37.5 µg/mL	first compound 75 µg/mL
partner 0.125 µg/mL	0.699	–	0.0274
partner 0.25 µg/mL	0.634	–	0.0298
partner 0.5 µg/mL	–	0.0986	0.0408

Conditions	Bliss interaction score
B. subtilis 168 [3]	-0.124
S. aureus DSM 20231	0.0889
S. aureus Newman [2]	-0.0863
S. pneumoniae D39V [4]	-0.144

CC[C@H](C)[C@H](N)C1=N[C@H](C(=O)N[C@@H](CC(C)C)C(=O)N[C@H](CCC(=O)O)C(=O)N[C@H](C(=O)N[C@H]2CCCCNC(=O)[C@H](CC(N)=O)NC(=O)[C@@H](CC(=O)O)NC(=O)[C@H](Cc3cnc[nH]3)NC(=O)[C@@H](Cc3ccccc3)NC(=O)[C@H]([C@@H](C)CC)NC(=O)[C@@H](CCCN)NC2=O)[C@@H](C)CC)CS1 [Bacitracin] + Cn1nnc(-c2ccc(-c3ccc(N4C[C@H](CO)OC4=O)cc3F)cn2)n1 [Tedizolid]
fitness, S. aureus Newman [1]
Conditions	first compound 18.75 µg/mL	first compound 37.5 µg/mL	first compound 75 µg/mL
partner 0.0625 µg/mL	0.646	0.0796	0.0039
partner 0.125 µg/mL	–	0.0327	0.0056
partner 0.25 µg/mL	0.0222	0.0202	0.0046

Conditions	Bliss interaction score
B. subtilis 168 [3]	-0.0855
S. aureus DSM 20231	-0.0663
S. aureus Newman [2]	-0.222
S. pneumoniae D39V [4]	0.12

CC[C@H](C)[C@H](N)C1=N[C@H](C(=O)N[C@@H](CC(C)C)C(=O)N[C@H](CCC(=O)O)C(=O)N[C@H](C(=O)N[C@H]2CCCCNC(=O)[C@H](CC(N)=O)NC(=O)[C@@H](CC(=O)O)NC(=O)[C@H](Cc3cnc[nH]3)NC(=O)[C@@H](Cc3ccccc3)NC(=O)[C@H]([C@@H](C)CC)NC(=O)[C@@H](CCCN)NC2=O)[C@@H](C)CC)CS1 [Bacitracin] + O=C(N[C@H](CO)[C@H](O)c1ccc([N+](=O)[O-])cc1)C(Cl)Cl [Chloramphenicol]
fitness, S. aureus Newman [1]
Conditions	first compound 18.75 µg/mL	first compound 37.5 µg/mL	first compound 75 µg/mL
partner 0.75 µg/mL	0.589	0.182	0.0093
partner 1.5 µg/mL	0.38	0.0293	0.0143
partner 3 µg/mL	0.0184	0.0086	0.0146

Conditions	Bliss interaction score
B. subtilis 168 [3]	-0.106
S. aureus DSM 20231	-0.0262
S. aureus Newman [2]	-0.0971
S. pneumoniae D39V [4]	-0.0459

CC(=O)NC[C@H]1CN(c2ccc(N3CCOCC3)c(F)c2)C(=O)O1 [Linezolid] + CCC(C)C1C(=O)NC(=C)C(=O)NC(C(=O)NC(CSCC(C(=O)N1)NC(=O)/C(=C/C)/NC(=O)C(C(C)CC)N)C(=O)NC2C(SCC(NC(=O)CNC(=O)C3CCCN3C2=O)C(=O)NC(CCCCN)C(=O)NC4C(SCC(NC(=O)CNC(=O)C(NC(=O)C(NC(=O)C(NC(=O)CNC4=O)C)CC(C)C)CCSC)C(=O)NC(CC(=O)N)C(=O)NC(CCSC)C(=O)NC(CCCCN)C(=O)NC5C(SCC6C(=O)NC(C(=O)NC(CSC(C(C(=O)N6)NC(=O)C(NC5=O)C)C)C(=O)NC(CO)C(=O)NC(C(C)CC)C(=O)NC(CC7=CN=CN7)C(=O)NC(C(C)C)C(=O)NC(=C)C(=O)NC(CCCCN)C(=O)O)CC8=CN=CN8)C)C)C)CC(C)C [Nisin]
fitness, B. subtilis 168 [5], one replicate
Conditions	first compound 0.0625 µg/mL	first compound 0.125 µg/mL	first compound 0.25 µg/mL	first compound 0.5 µg/mL
partner 0.5 µg/mL	0.875	–	–	0.0342
partner 1 µg/mL	0.743	–	–	0.0597
partner 1.25 µg/mL	–	0.734	0.502	0.074
partner 1.6 µg/mL	–	0.411	0.0282	0.027
partner 2 µg/mL	0.547	–	–	0.0406
partner 2.5 µg/mL	–	0.187	0.118	0.0568
partner 3.2 µg/mL	–	0.0219	0.0214	0.042
partner 4 µg/mL	–	0.038	0.0369	0.023
partner 5 µg/mL	–	0.0523	0.0422	0.0652
partner 6.4 µg/mL	–	0.0537	0.0573	0.0278
partner 8 µg/mL	–	0.0224	0.0244	0.019
partner 16 µg/mL	–	0.0095	0.0006	0.0145

Conditions	fitness
B. subtilis 168 [5], first compound 0.125 µg/mL, partner 0.5 µg/mL	0.503
B. subtilis 168 [5], first compound 0.125 µg/mL, partner 1 µg/mL	0.421
B. subtilis 168 [5], first compound 0.125 µg/mL, partner 2 µg/mL	0.111
B. subtilis 168 [5], first compound 0.25 µg/mL, partner 0.5 µg/mL	0.167
B. subtilis 168 [5], first compound 0.25 µg/mL, partner 1 µg/mL	0.0862
B. subtilis 168 [5], first compound 0.25 µg/mL, partner 2 µg/mL	0.0407
S. pneumoniae D39V [6], first compound 0.105 µg/mL, partner 1.6 µg/mL	0.0032
S. pneumoniae D39V [6], first compound 0.105 µg/mL, partner 3.2 µg/mL	0.0264
S. pneumoniae D39V [6], first compound 0.105 µg/mL, partner 6.4 µg/mL	0.015
S. pneumoniae D39V [6], first compound 0.2 µg/mL, partner 0.4275 µg/mL	0.804
S. pneumoniae D39V [6], first compound 0.2 µg/mL, partner 0.855 µg/mL	0.657
S. pneumoniae D39V [6], first compound 0.2 µg/mL, partner 1.71 µg/mL	0.0574
S. pneumoniae D39V [6], first compound 0.21 µg/mL, partner 1.6 µg/mL	0
S. pneumoniae D39V [6], first compound 0.21 µg/mL, partner 3.2 µg/mL	0.0008
S. pneumoniae D39V [6], first compound 0.21 µg/mL, partner 6.4 µg/mL	0
S. pneumoniae D39V [6], first compound 0.4 µg/mL, partner 0.4275 µg/mL	0.63
S. pneumoniae D39V [6], first compound 0.4 µg/mL, partner 0.855 µg/mL	0.314
S. pneumoniae D39V [6], first compound 0.4 µg/mL, partner 1.71 µg/mL	0.0313
S. pneumoniae D39V [6], first compound 0.42 µg/mL, partner 1.6 µg/mL	0.0074
S. pneumoniae D39V [6], first compound 0.42 µg/mL, partner 3.2 µg/mL	0.0019
S. pneumoniae D39V [6], first compound 0.42 µg/mL, partner 6.4 µg/mL	0.0156
S. pneumoniae D39V [6], first compound 0.8 µg/mL, partner 0.4275 µg/mL	0.132
S. pneumoniae D39V [6], first compound 0.8 µg/mL, partner 0.855 µg/mL	0.0545
S. pneumoniae D39V [6], first compound 0.8 µg/mL, partner 1.71 µg/mL	0.0571

Conditions	Bliss interaction score
B. subtilis 168 [3]	-0.0535
S. aureus DSM 20231	-0.0557
S. aureus Newman [2]	-0.0621
S. pneumoniae D39V [4]	-0.0674
